# Experimental data: patent publication US7763642B2 (Sterix Ltd., priority 2004, dated 2010)
# Where two headings read alike, the source gives them in different places.
# How the values were obtained:
# [1] = target: T1, aromatase (Homo sapiens, UniProt P11511); experiment: Aromatase activity in JEG3 choriocarcinoma cells (Protocol 6); type: cell-based
# T1 construct: Intact monolayers of JEG3 cells (2.5×10^6 cells) in triplicate 25 cm^2 tissue culture flasks; host or cells: JEG3 choriocarcinoma cells
# T1 sequence (P11511 1-503): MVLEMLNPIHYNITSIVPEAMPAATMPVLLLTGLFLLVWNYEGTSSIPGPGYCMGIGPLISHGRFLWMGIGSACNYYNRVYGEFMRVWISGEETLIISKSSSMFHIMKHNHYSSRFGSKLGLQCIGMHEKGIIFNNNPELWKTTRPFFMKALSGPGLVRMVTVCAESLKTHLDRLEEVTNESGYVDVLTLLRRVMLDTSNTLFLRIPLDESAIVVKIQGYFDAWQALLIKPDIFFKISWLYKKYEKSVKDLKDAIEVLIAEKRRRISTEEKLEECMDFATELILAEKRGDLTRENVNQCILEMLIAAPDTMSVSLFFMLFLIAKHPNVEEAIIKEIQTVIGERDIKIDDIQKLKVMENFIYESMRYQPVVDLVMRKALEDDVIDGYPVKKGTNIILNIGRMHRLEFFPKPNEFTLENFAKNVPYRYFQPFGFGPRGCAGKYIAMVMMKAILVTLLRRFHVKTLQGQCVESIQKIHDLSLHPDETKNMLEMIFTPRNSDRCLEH
# Method: Aromatase activity is measured in JEG3 choriocarcinoma cells, obtained from the ATCC. […] Cells are maintained in Minimal Essential Medium (MEM, Flow Laboratories, Irvine, Scotland) containing 20 mM HEPES, 10% foetal bovine serum, 2 mM glutamine, non-essential amino acids and 0.075% sodium bicarbonate. Intact monolayers of JEG3 cells (2.5×10^6 cells) in triplicate 25 cm^2 tissue culture flasks are washed with Earle's Balanced salt solution (EBSS, from ICN Flow, High Wycombe, UK) and incubated with [1β-^3H] androstenedione (2-5 nM, 26 Ci/mmol, New England Nuclear, Boston, Mass., USA) for 30 min with inhibitors over the range of 10 pm-10 μM. During the aromatase reaction, ^3H2O is liberated which can he quantified using a liquid scintillation spectrometer (Beckman-Coulter, High Wycombe, Bucks. UK). […] The number of cell nuclei per flask is determined using a Coulter Counter after treating the cell monolayers with Z aponin.
# Unpaired Student's t test was used to test the statistical significance of results. IC50 values were calculated as the concentration of inhibitor required to obtain a 50% inhibition of aromatase activity.
# [2] = target: T2, steroid sulphatase (STS) (Homo sapiens, UniProt P08842); experiment: Inhibition of steroid sulphatase activity in JEG3 cells (Protocol 1); type: cell-based; conditions: for inhibition at 10 µM: JEG-3, read-out: % STS INHIBITION (10 μM)
# T2 construct: Intact monolayers of JEG3 cells in triplicate 25 cm^2 tissue culture flasks; host or cells: JEG3 choriocarcinoma cells
# T2 sequence (P08842 22-583): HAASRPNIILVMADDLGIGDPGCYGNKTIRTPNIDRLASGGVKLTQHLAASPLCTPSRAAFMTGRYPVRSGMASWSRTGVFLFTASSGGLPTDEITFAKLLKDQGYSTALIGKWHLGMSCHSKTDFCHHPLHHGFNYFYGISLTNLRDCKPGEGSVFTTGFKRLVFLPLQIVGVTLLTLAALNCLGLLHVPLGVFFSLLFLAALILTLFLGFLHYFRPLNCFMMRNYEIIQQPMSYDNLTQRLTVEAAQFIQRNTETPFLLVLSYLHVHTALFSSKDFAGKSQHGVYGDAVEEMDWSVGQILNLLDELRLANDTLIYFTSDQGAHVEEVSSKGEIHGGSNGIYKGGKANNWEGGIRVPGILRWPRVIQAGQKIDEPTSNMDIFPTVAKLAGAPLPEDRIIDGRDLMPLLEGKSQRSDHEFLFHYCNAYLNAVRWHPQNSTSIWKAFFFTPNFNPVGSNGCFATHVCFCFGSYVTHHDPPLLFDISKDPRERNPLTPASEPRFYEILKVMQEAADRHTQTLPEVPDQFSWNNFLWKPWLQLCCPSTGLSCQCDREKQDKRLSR
# Method: Steroid sulphatase activity is measured in vitro using intact JEG3 choriocarcinoma cells. This cell line may be used to study the control of human breast cancer cell growth.
# Cells are maintained in Minimal Essential Medium (MEM) (Flow Laboratories, Irvine, Scotland) containing 20 mM HEPES, 5% foetal bovine serum, 2 mM glutamine, non-essential amino acids and 0.075% sodium bicarbonate. Up to 30 replicate 25 cm2 tissue culture flasks are seeded with approximately 1×10^5 cells/flask using the above medium. Cells are grown to 80% confluency and the medium is changed every third day.
# Intact monolayers of JEG3 cells in triplicate 25 cm^2 tissue culture flasks are washed with Earle's Balanced Salt Solution (EBSS from ICN Flow, High Wycombe, U.K.) and incubated for 3-4 hours at 37° C. with 5 pmol (7×10^5 dpm) [6,7-3H]oestrone-3-sulphate (specific activity 60 Ci/mmol from New England Nuclear, Boston, Mass., U.S.A.) in serum-free MEM (2.5 ml) together with oestrone-3-sulphamate (11 concentrations: 0; 1 fM; 0.01 pM; 0.1 pM; 1 pM; 0.01 nM; 0.1 nM; 1 nM; […]). After incubation each flask is cooled and the medium (1 ml) is pipetted into separate tubes containing [14C]oestrone (7×10^3 dpm) (specific activity 97 Ci/mmol from Amersham International Radiochemical Centre, Amersham, U.K.). The mixture is shaken thoroughly for 30 seconds with toluene (5 ml). Experiments have shown that >90% [14C] oestrone and <0.1% [3H]oestrone-3-sulphate is removed from the aqueous phase by this treatment. A portion (2 ml) of the organic phase is removed, evaporated and the 3H and 14C content of the residue determined by scintillation spectrometry. The mass of oestrone-3-sulphate hydrolysed was calculated from the 3H counts obtained (corrected for the volumes of the medium and organic phase used, and for recovery of [14C] oestrone added) and the specific activity of the substrate. Each batch of experiments includes incubations of microsomes prepared from a sulphatase-positive human placenta (positive control) and flasks without cells (to assess apparent non-enzymatic hydrolysis of the substrate). The number of cell nuclei per flask is determined using a Coulter Counter after treating the cell monolayers with Zaponin. One flask in each batch is used to assess cell membrane status and viability using the Trypan Blue exclusion method (Phillips, H. J. (1973) In: Tissue culture and applications, [eds: Kruse, D. F. & Patterson, M. K.]; pp. 406-408; Academic Press, New York).
# Results for steroid sulphatase activity are expressed as the mean±1 S.D. of the total product (oestrone+oestradiol) formed during the incubation period (3-4 hours) calculated for […] and, for values showing statistical significance, as a percentage reduction (inhibition) over incubations containing no oestrone-3-sulphamate. Unpaired Student's t-test was used to test the statistical significance of results.
# [3] = test system: uterus; conditions: cited from earlier work
# [4] = target: T3, steroid sulphatase (Homo sapiens, UniProt P08842); conditions: versus EMATE; cited from earlier work
# T3 sequence (P08842 22-583): T2 sequence (P08842 22-583)
# [5] = target: T4, E1-STS (Homo sapiens, UniProt P08842); conditions: 0.1 nM; cited from earlier work
# T4 construct: host or cells: MCF-7 cells
# T4 sequence (P08842 22-583): T2 sequence (P08842 22-583)
# [6] = target: T5, oestrone sulphatase (STS) (Rattus norvegicus, UniProt P15589); experiment: Inhibition of oestrone sulphatase activity in vivo (Protocol 3)
# T5 construct: samples of liver tissue were obtained and oestrone sulphatase activity assayed; from tissue; host or cells: rat liver
# T5 sequence (P15589 20-577): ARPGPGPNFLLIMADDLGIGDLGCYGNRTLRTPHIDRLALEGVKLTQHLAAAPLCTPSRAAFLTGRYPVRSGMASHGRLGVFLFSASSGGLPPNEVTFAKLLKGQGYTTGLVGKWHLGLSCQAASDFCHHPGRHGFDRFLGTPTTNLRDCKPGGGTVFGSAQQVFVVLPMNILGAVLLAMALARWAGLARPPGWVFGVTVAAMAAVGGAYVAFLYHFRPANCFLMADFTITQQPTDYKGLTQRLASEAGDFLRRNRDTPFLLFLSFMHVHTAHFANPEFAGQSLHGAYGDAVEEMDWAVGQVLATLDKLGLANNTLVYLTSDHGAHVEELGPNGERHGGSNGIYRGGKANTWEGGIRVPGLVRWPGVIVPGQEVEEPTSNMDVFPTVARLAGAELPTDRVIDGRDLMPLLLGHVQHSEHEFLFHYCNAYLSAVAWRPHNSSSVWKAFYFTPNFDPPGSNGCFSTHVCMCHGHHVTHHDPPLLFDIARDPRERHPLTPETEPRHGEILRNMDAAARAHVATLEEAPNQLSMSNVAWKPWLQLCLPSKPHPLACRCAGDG
# Method: The compounds of the present invention may be studied using an animal model, in particular in ovariectomised rats. In this model compounds which are oestrogenic stimulate uterine growth.
# At the end of the study samples of liver tissue were obtained and oestrone sulphatase activity assayed using 3H oestrone sulphate as the substrate as previously described (see PCT/GB95/02638).
# In vivo data were recorded using the above described aromatase and STS animals assays. The relevant compounds were administered and for each animal both aromatase and STS activities were determined.
# [7] = JEG-3; read-out: % AROMATASE INHIBITION (10 μM)
# [8] = JEG-3, read-out: % AROMATASE INHIBITION (10 μM)
Compound,"inhibition at 10 µM [1, 7] [%]",inhibition at 10 µM [2] [%],also measured
CC(C)(C#N)c1cc(CSc2ccc(OS(N)(=O)=O)c(Cl)c2)cc(Cn2cncn2)c1,99.9 ± 0.2,82.3 ± 0.8,
CC(C)(C#N)c1cc(COc2ccc(OS(N)(=O)=O)cc2)cc(Cn2cncn2)c1,99.8 ± 0.2,< 10,
COc1cc2c(cc1OS(N)(=O)=O)CC[C@@H]1[C@@H]2CC[C@]2(C)C(=O)CC[C@@H]12 [2-methoxyoestrone-3-O-sulphamate],,,"oestrogenicity ([3]; rat, in vivo): devoid of oestrogenicity; potency as steroid sulphatase inhibitor relative to EMATE [4]: equipotent with EMATE"
"CC12CCC3c4ccc(OS(N)(=O)=O)cc4CCC3C1CCC2=O (stereo not drawn) [EMATE, oestrone-3-sulphamate]",,,"inhibition of E1-STS activity in intact MCF-7 cells [5]: more than 99%; oral uterotrophic activity relative to estradiol ([3]; rats, oral, versus estradiol): 100 times"
CC(C)(C#N)c1cc(CSc2ccc(O)cc2)cc(Cn2cncn2)c1 [STX1022],,,IC50 ([1]; JEG3 cells): 1 nM
CC(C)(C#N)c1cc(CSc2ccc(OS(N)(=O)=O)cc2)cc(Cn2cncn2)c1 [STX1023],,,IC50 ([1]; JEG3 cells): 3.5 nM; IC50 ([2]; JEG3 cells): > 10000 nM; inhibition at 10 mg/kg [6]: 87%
"N#Cc1ccc(-c2ccc(OS(N)(=O)=O)cc2)cc1Cn1cncn1 [STX1522, Sulfamic acid 4′-cyano-3′-[1,2,4]triazol-1-ylmethyl-biphenyl-4-yl ester]",,96.1 ± 0.3,"inhibition at 10 µM [1, 8]: 98 ± 0.3%"
"CC(C)(C#N)c1cc(Cn2cncn2)cc(-c2ccc(OS(N)(=O)=O)cc2)c1 [STX1523, Sulfamic acid 3′-(cyano-dimethyl-methyl)-5′-[1,2,4]triazol-1-ylmethyl-biphenyl-4-yl ester]",99.7 ± 0.2,24.4 ± 3.1,
"COC(=O)c1cc(Cn2cncn2)cc(NS(=O)(=O)c2ccc(OS(N)(=O)=O)c(F)c2)c1 [STX1528, 3-(3-Fluoro-4-sulfamoyloxy-benzenesulfonylamino)-5-[1,2,4]triazol-1-ylmethyl-benzoic acid methyl ester]",,< 10,"inhibition at 10 µM [1, 8]: 83.4 ± 1.3%"
"N#CC1(c2cc(CSc3ccc(OS(N)(=O)=O)cc3)cc(Cn3cncn3)c2)CCC1 [STX1731, 4-((3-((1H-1,2,4-triazol-1-yl)methyl)-5-(1-cyanocyclobutyl)benzyl)sulfanyl)phenyl sulfamate]",99.5 ± 0.2,21.4 ± 7.9,
"N#CC1(c2cc(CSc3ccc(OS(N)(=O)=O)cc3)cc(Cn3cncn3)c2)CC1 [STX1732, 4-((3-((1H-1,2,4-triazol-1-yl)methyl)-5-(1-cyanocyclopropyl)benzyl)sulfanyl)phenyl sulfamate]",99.8 ± 0.1,< 10,
"N#CC1(c2cc(CSc3ccc(OS(N)(=O)=O)c(Cl)c3)cc(Cn3cncn3)c2)CCC1 [STX1794, 4-((3-((1H-1,2,4-triazol-1-yl)methyl)-5-(1-cyanocyclobutyl)benzyl)sulfanyl)-2-chlorophenyl sulfamate]",99.7 ± 0.1,75.3 ± 0.6,
"CC(C)(C#N)c1cc(CSc2ccc(OS(N)(=O)=O)c(Br)c2)cc(Cn2cncn2)c1 [STX1795, 4-((3-((1H-1,2,4-triazol-1-yl)methyl)-5-(2-cyanopropan-2-yl)benzyl)sulfanyl)-2-bromophenyl sulfamate]",100,,
"COC(=O)c1cc(Cn2cncn2)cc(N(C)S(=O)(=O)c2ccc(OS(N)(=O)=O)cc2)c1 [STX1829, 3-[Methyl-(4-sulfamoyloxy-benzenesulfonyl)-amino]-5-[1,2,4]triazol-1-ylmethyl-benzoic acid methyl ester]",99.5 ± 0.2,17.6 ± 4,
"COC(=O)c1cc(Cn2cncn2)cc(NC(=O)c2ccc(OS(N)(=O)=O)cc2)c1 [STX1830, 3-(4-Sulfamoyloxy-benzoylamino)-5-[1,2,4]triazol-1-ylmethyl-benzoic acid methyl ester]",,33.4 ± 5.3,"inhibition at 10 µM [1, 8]: 52.7 ± 6.7%"
"CC(C)(C#N)c1cc(/C=C/c2ccc(OS(N)(=O)=O)cc2)cc(Cn2cncn2)c1 [STX1833, 4-(3-((1H-1,2,4-triazol-1-yl)methyl)-5-(2-cyanopropan-2-yl)styryl)phenyl sulfamate]",,21.5 ± 4.7,
